Test results taken from US8785374B2, “Inhibitors of mammalian tight junction opening” (Alba Therapeutics Corporation, priority 2007, dated 2014).
Non-standard residues stand in square brackets, D forms with d. No end group written: not given here. pGlu = O=C1CC[C@@H](C(=O)O)N1; Gip = not defined here

Experiments:
[1] = tested on: CaCo2 monolayers (tight junctions); experiment: Inhibition of agonist-induced Lucifer Yellow flux through CaCo2 monolayers; settings: for Reduced LY Permeability: inhibition of the increase in Lucifer Yellow permeability induced by SEQ ID NO:70 (FCIGRL), CaCo2 monolayers
Excerpt: (§1) Measurement of the Inhibition of the Decrease in Trans Epithelial Electric Resistance (TEER) and Epithelial Flux of a Fluorescent Marker Lucifer Yellow
(§2) Antagonists of tight junctions can be identified by their ability to prevent or decrease the enhancement of the flux of compounds (e.g. Lucifer Yellow) through the monolayer induced by agonists of tight junctions (e.g., SEQ ID NO: 70). Antagonists of tight junctions can also be identified by their ability to prevent the decrease in TEER induced by agonists of tight junctions (e.g., SEQ ID NO: 70).
(§3) Tight junction antagonists can be identified using the following method:
(§4) Prepare Modified Hank's Balanced Salt Solution (MHBSS) by obtaining IL bottle of HBSS removing 10 ml of HBSS and replacing it with 10 ml HEPES buffer pH 7.0. Adjust pH to 7.4±0.1 using concentrated NaOH (10N).
(§5) Remove Caco-2 cells from incubator, grown on 12-well, […], polycarbonate Transwell® filters (Corning) and record passage number, date cells seeded and age in days.
(§6) Aspirate cell culture medium from both the apical (AP) and basolateral (BL) compartments, replacing with 0.5 ml and 1.5 ml of MHBSS, respectively. Incubate cells at 37° C. for 30 minutes.
(§7) Prepare a stock solution of the Antagonist Pretreatment Solution by dissolving the appropriate amount of antagonist in MHBSS. Vortex or sonicate the solution until it is clear then adjust pH to 7.4±0.1 using 1N NaOH. Preincubate each filter for 30 min with these solutions at 37° C. and 50 RPM.
(§8) Prepare stock solutions of Antagonist Treatment Solution by dissolving appropriate amounts of antagonist and agonist (for example, a peptide agonist such as a peptide having the sequence FCIGRL (SEQ ID NO: 70)) in 7.5 mM Lucifer Yellow solution in MHBSS. Vortex or sonicate the solution until it is clear then adjust pH to 7.4±0.1 using 1N NaOH.
(§9) Aspirate Antagonist Pretreatment Solution from the apical compartment of each filter (n=3 per condition) and replace with 0.5 ml of control and test solutions.
(§10) Place all plates into incubator set at 37° C. (±0.2), 50 RPM (±5) for a total of 180 minutes.
At t=60, 120 and 180 minutes remove 100 μl from each basolateral compartment and place it in a 96-well plate for Lucifer Yellow analysis, replace with 100 μl of HBSS.
Make a Lucifer Yellow standard curve with the following dilutions (7500 μM, 3750 μM, 750 μM, 375 μM, 75 μM, 37.5 μM, 7.5 μM, 3.75 μM, 0.75 μM) and pipette 100 μL of each into a 96-well plate except for the first three standards mentioned above which require a 1:10 dilution prior to transferring to the 96-well plate.
At t=0 make 1:10 dilutions of each starting Antagonist Treatment Solution mentioned above and pipette 100 μL of each into a 96-well plate.
At t=180 make 1:10 dilutions of Antagonist Treatment Solution from the apical compartment of each filter and pipette 100 μL of each into the 96-well plate.
Analyze each 96-well plate in a Tecan Spectra Fluor Plus using Magellan at 485 and 535 nm.
(§11) Cells: Caco-2 cells passage 40-60 grown on Transwell® plates for 21-28 days
(§12) SEQ ID NO: 70 is a 6-mer peptide tight junction agonist having the sequence FCIGRL. See US patent publication US 2005/0059593 A1. In the following tables + indicates attenuation of the effects of the tight junction agonist were observed and − indicates no attenuation of the effects of the tight junction agonist were observed.

[2] = tested on: CaCo2 monolayers (tight junctions); experiment: Inhibition of agonist-induced decrease in trans epithelial electric resistance (TEER) of CaCo2 monolayers; settings: for Prevented TEER Reduction: inhibition of the reduction in TEER induced by SEQ ID NO:70 (FCIGRL), CaCo2 monolayers
Excerpt: as §1, §2, §3, §4, §5, §6
Using the MilliCell®-ERS instrument (Millipore), measure and record the transepithelial electrical resistance (TEER) across each filter and record.
as §7, §8, §9, §10
At t=30, 60, 120 and 180 minutes, measure and record the transepithelial electrical resistance (TEER) across each filter using the MilliCell-ERS instrument.
as §11, §12

[3] = agonist alone, compared to vehicle alone

Substance | Reduced LY Permeability [1] | Prevented TEER Reduction [2] | Enhancement of Lucifer Yellow permeability through CaCo2 monolayers [1, 3] [fold] | Decrease of TEER in CaCo2 monolayers [2, 3] [fold]
(d)Gln-(d)Pro-Gly ([dQ]-[dP]-Gly) [SEQ ID NO: 12] | − | − |  | 
(d)Gln-Pro-Gly ([dQ]-Pro-Gly) [SEQ ID NO: 10] | + | + |  | 
Ala-Pro-Gly (APG; Tight junction antagonist) [SEQ ID NO: 7] | + | + |  | 
Ala-Pro-Gly (APG; Tight junction antagonist) [SEQ ID NO: 17] | + | + |  | 
Arg-Pro-Gly (RPG; Tight junction antagonist) [SEQ ID NO: 20] | + | + |  | 
Asn-Pro-Gly (NPG; Tight junction antagonist) [SEQ ID NO: 27] | + | + |  | 
Asp-Pro-Gly (DPG; Tight junction antagonist) [SEQ ID NO: 19] | − | − |  | 
FCIGRL [FCIGRL, reference compound] |  |  | 51 | 16
GGVLVQPG [SEQ ID NO: 1, reference compound] | + | + |  | 
GVLVQPG [SEQ ID NO: 2] | − | − |  | 
Gip-Pro-Ile ([Gip]-Pro-Ile; reading uncertain; also: printed as Gip-Pro-Ile) [SEQ ID NO: 67] | − | + |  | 
Gln-(d)Pro-Gly (Gln-[dP]-Gly) [SEQ ID NO: 11] | + | + |  | 
Gln-Ala-Gly (QAG; Tight junction antagonist) [SEQ ID NO: 8] | + | + |  | 
Gln-Pro-Ala (QPA; Tight junction antagonist) [SEQ ID NO: 9] | + | + |  | 
Gln-Pro-Gly (QPG; Tight junction antagonist) [SEQ ID NO: 6] | + | + |  | 
Glp-Arg-Gly ([pGlu]-Arg-Gly) [SEQ ID NO: 47] | − | − |  | 
Glp-Asn-Gly ([pGlu]-Asn-Gly) [SEQ ID NO: 46] | − | − |  | 
Glp-Asp-Gly ([pGlu]-Asp-Gly) [SEQ ID NO: 50] | − | − |  | 
Glp-Gln-Gly ([pGlu]-Gln-Gly) [SEQ ID NO: 37] | − | − |  | 
Glp-Glu-Gly ([pGlu]-Glu-Gly) [SEQ ID NO: 41] | − | − |  | 
Glp-Gly-Gly ([pGlu]-Gly-Gly) [SEQ ID NO: 48] | − | − |  | 
Glp-His-Gly ([pGlu]-His-Gly) [SEQ ID NO: 45] | − | − |  | 
Glp-Ile-Gly ([pGlu]-Ile-Gly) [SEQ ID NO: 43] | − | − |  | 

Substance | Reduced LY Permeability [1] | Prevented TEER Reduction [2] | Enhancement of Lucifer Yellow permeability through CaCo2 monolayers [1, 3] [fold] | Decrease of TEER in CaCo2 monolayers [2, 3] [fold]
Glp-Leu-Gly ([pGlu]-Leu-Gly) [SEQ ID NO: 52] | − | − |  | 
Glp-Lys-Gly ([pGlu]-Lys-Gly) [SEQ ID NO: 39] | − | − |  | 
Glp-Met-Gly ([pGlu]-Met-Gly) [SEQ ID NO: 51] | − | − |  | 
Glp-Phe-Gly ([pGlu]-Phe-Gly) [SEQ ID NO: 40] | − | − |  | 
Glp-Pro-Arg ([pGlu]-Pro-Arg) [SEQ ID NO: 62] | − | − |  | 
Glp-Pro-Asn ([pGlu]-Pro-Asn) [SEQ ID NO: 54] | − | + |  | 
Glp-Pro-Asp ([pGlu]-Pro-Asp) [SEQ ID NO: 59] | − | − |  | 
Glp-Pro-Gln ([pGlu]-Pro-Gln) [SEQ ID NO: 53] | − | − |  | 
Glp-Pro-Glu ([pGlu]-Pro-Glu) [SEQ ID NO: 65] | − | − |  | 
Glp-Pro-Gly ([pGlu]-Pro-Gly) [SEQ ID NO: 35] | + | + |  | 
Glp-Pro-His ([pGlu]-Pro-His) [SEQ ID NO: 60] | − | − |  | 
Glp-Pro-Leu ([pGlu]-Pro-Leu) [SEQ ID NO: 61] | − | − |  | 
Glp-Pro-Lys ([pGlu]-Pro-Lys) [SEQ ID NO: 64] | − | − |  | 
Glp-Pro-Met ([pGlu]-Pro-Met) [SEQ ID NO: 68] | − | + |  | 
Glp-Pro-Phe ([pGlu]-Pro-Phe) [SEQ ID NO: 66] | − | − |  | 
Glp-Pro-Pro ([pGlu]-Pro-Pro) [SEQ ID NO: 57] | − | + |  | 
Glp-Pro-Ser ([pGlu]-Pro-Ser) [SEQ ID NO: 56] | − | − |  | 
Glp-Pro-Trp ([pGlu]-Pro-Trp) [SEQ ID NO: 58] | − | − |  | 
Glp-Pro-Tyr ([pGlu]-Pro-Tyr) [SEQ ID NO: 69] | − | + |  | 
Glp-Pro-Val ([pGlu]-Pro-Val) [SEQ ID NO: 63] | − | − |  | 
Glp-Ser-Gly ([pGlu]-Ser-Gly) [SEQ ID NO: 38] | − | − |  | 
Glp-Thr-Gly ([pGlu]-Thr-Gly) [SEQ ID NO: 42] | − | − |  | 
Glp-Trp-Gly ([pGlu]-Trp-Gly) [SEQ ID NO: 49] | − | − |  | 
